Read-outs that look alike come from different tables or passages of the source.
Tests used:
Format in all cases: cell-based, Hepatitis B virus
[1] = system: wild-type (WT) recombinant HBV-baculovirus; experiment: Antiviral testing, wild-type (1.3x genomic length) recombinant HBV-baculovirus in HepG2 cells (Example 17)
Procedure: (§1) HepG2 cells were seeded at approximately 20-40% confluency and then were grown for 16-24 hours before infection. On the day of infection, triplicate plates of cells were trypsinized, and viable cell number was determined with a hemocytometer using Trypan blue exclusion. Average cell counts were calculated and used to determine the volume of high-titer viral stock necessary to infect cells at the indicated moi. HepG2 cells were washed one time with serum-free MEM to remove traces of serum. Baculovirus was diluted into MEM without serum to achieve the appropriate moi using volumes of 1.0, 0.5, and 0.25 ml to infect 100-mm, 60 mm, and 35-mm dishes, respectively. Baculovirus was adsorbed to HepG2 cells for one hour at 37° C. with gentle rocking every 15 minutes to ensure that the inoculum was evenly distributed. The inoculum was then aspirated and HepG2 cells were washed two times with phosphate-buffered saline and refed MEM-FBS with or without various concentrations of agents.
(§2) HBV core particles were isolated from the cytoplasmic fraction of HepG2 cells lysed in 0.5% w/v NP-40. Cytoplasmic extracts were adjusted to 10 mmol/l McC12 and unprotected DNA was removed by an incubation to […] for 1.5 hours at 37° C. Following sequential phenol and chloroform extractions, nucleic acids were recovered by ethanol precipitation. Nucleic acids were resuspended in 50 μl/l TE (10 mmol/l Tris, 1 mmol/l ethylenedianinetetraacetic acid), normalized by OD260, and digested with 100 μg/ml RNase (Boehringer Mannheim, Indianapolis, Ind.) for one hour at 37° C. before analysis by electrophoresis and Southern blotting. A BioRad GS-670 imaging densitometer and the Molecular Analyst software (BioRad, Hecules Calif.) was used to analyze suitable exposures of Southern blots. Densitometry data was fitted to logistic dose response curves using the TableCurve2D software package from Jandel Scientific. Logistic dose response equations were used to calculate IC50 and IC90 values and co-efficients of variation.
(§3) Conditioned medium was collected from HepG2 cells and subjected to centrifugation at 6,000 g for five minutes to remove cellular debris. HBV particles were precipitated with 10% w/v PEG 8000 and were concentrated by centrifugation at 12,000 ×g. Viral pellets were resuspended us 1 ml of MEM-FBS and divided into two aliquots. One set of aliquots was treated with 750 μg/ml Pronase for one hour and then with […] DNase 1 for one hour. Both sets of aliquots were then digested with Proteinase K, and extracted with phenol and chloroform. DNA was precipitated with 0.1 volume of 3 mol/l sodium acetate and 1 volume of isopropanol. Ten micrograms of transfer RNA was added as a carrier during precipitation. Pellets were resuspended in 25 μl of TE and digested with 0.5 mg/ml RNase for one hour. DNA was then analyzed by electrophoresis and Southern blotting.
(§4) 3TC and PCV were a gift from Klaus Esser, SmithKline Beecham, Collegeville, Pa. PMEA was obtained from Gilead (Foster City, Calif.). 3TC was resuspended in sterile water, aliquoted, and frozen at −20° C. to avoid repeated freezing and thawing of the drug. PMEA was resuspended in sterile water after the pH was adjusted to 7.0 with NaOH. PCV was resuspended in dimethyl sulphoxide. Medium containing 3TC was prepared daily as needed using fresh aliquots of 3TC. In experiments in which 3TC treatment was initiated after viral infection, HepG2 cells were exposed to the indicated concentration of 3TC immediately after infection with HBV baculovirus. In experiments utilizing pretreatment with 3TC, cells were fed medium containing 3TC 16 hours prior to HBV baculovirus infection, HBV baculovirus infection was also carried out in medium containing 3TC, and cells were refed fresh medium containing 3TC immediately after completion of the infection and washing procedures. Treatment with PMEA and PCV were conducted in a similar manner.

L526M HBV baculovirus = experiment: Antiviral testing with L526M HBV baculovirus in HepG2 cells (Example 15)
Procedure: as §1, §2, §4

[2] = system: wild-type HBV baculovirus; experiment: Antiviral testing with wild-type HBV baculovirus in HepG2 cells (Example 15, Southern blot densitometry)
Procedure: as §1, §2, §4
The dose effect of 3TC and PMEA, on wild-type HBV is shown graphically in FIG. 6 (A, B,) and a Southern Blot of intracellular HBV replicative intermediates and extracellular virus produced by HepG2 cells transduced with wild-type HBV-baculovirus in the presence of increasing concentrations of PCV is shown in FIG. 6C and the IC50 for each antiviral agent is shown in Table 2.

[3] = system: Precore/M550I recombinant HBV-baculovirus; experiment: Antiviral testing, Precore/M550I recombinant HBV-baculovirus in HepG2 cells (Example 17); details: Hepatitis B virus, NDR = no dose response
Procedure: as §1, §2
as §3, with “Pellets were resuspended in 25 μl of TE and digested with 0.5 mg/ml RNase for one hour.” left out, “blotting. […]” for “blotting.”

[4] = system: L526M/M550V HBV baculovirus; experiment: Antiviral testing with L526M/M550V HBV baculovirus in HepG2 cells (Example 15)
Procedure: as §1, §2, §4

[5] = system: M550I recombinant HBV-baculovirus; experiment: Antiviral testing, M550I recombinant HBV-baculovirus in HepG2 cells (Example 17); details: Hepatitis B virus, HepG2, intracellular single-stranded HBV DNA, NDR = no dose response, read-out: IC50 (μM), IC SS
Procedure: as §1
(§5) HBV core particles were isolated from the cytoplasmic fraction of HepG2 cells lysed in 0.5% w/v NP-40. […]
(§6) Conditioned medium was collected from HepG2 cells and subjected to centrifugation at 6,000 g for five minutes to remove cellular debris. […] DNA was then analyzed by electrophoresis and Southern blotting. […]

[6] = system: precore (G1896A) recombinant HBV-baculovirus; experiment: Antiviral testing of the precore mutant (G1896A) HBV baculovirus in HepG2 cells (Example 17)
Procedure: as §1, §2, §3, §4

[7] = system: Precore/L526M/M550V recombinant HBV-baculovirus; experiment: Antiviral testing, Precore/L526M/M550V recombinant HBV-baculovirus in HepG2 cells (Example 17); details: Hepatitis B virus, NDR = no dose response
Procedure: as §1, §2
as §3, with “Pellets were resuspended in 25 μl of TE and digested with 0.5 mg/ml RNase for one hour.” left out, “blotting. […]” for “blotting.”

[8] = system: L526M/M550V recombinant HBV-baculovirus; experiment: Antiviral testing, L526M/M550V recombinant HBV-baculovirus in HepG2 cells (Example 17); details: Hepatitis B virus, HepG2, intracellular single-stranded HBV DNA, NDR = no dose response, read-out: IC50 (μM), IC SS
Procedure: as §1, §5, §6

M550I HBV baculovirus = experiment: Antiviral testing with M550I HBV baculovirus in HepG2 cells (Example 15)
Procedure: as §1, §2, §4

[9] = HepG2, extracellular relaxed circular HBV DNA, read-out: IC50 (μM), EC RC
[10] = HepG2, intracellular single-stranded HBV DNA, read-out: IC50 (μM), IC SS

Nc1ncnc2c1ncn2CCOCP(=O)(O)O [Adefovir, 9-(2-phosphonylmethoxyethyl)adenine]
IC50 ([1]; Hepatitis B virus, HepG2, WT, extracellular relaxed circular HBV DNA, averages where footnoted, read-out: IC50 (μM), EC RC): 0.0535 µM
IC50 ([1]; Hepatitis B virus, HepG2, WT, extracellular relaxed circular HBV DNA, individual experiments behind the average, read-out: IC50, single experiments, EC RC): 0.06 µM
IC50 ([1]; Hepatitis B virus, HepG2, WT, intracellular single-stranded HBV DNA, averages where footnoted, read-out: IC50 (μM), IC SS): 0.235 µM
IC50 ([1]; Hepatitis B virus, HepG2, WT, intracellular single-stranded HBV DNA, individual experiments behind the average, read-out: IC50, single experiments, IC SS): 0.25 µM
IC50 ([1]; WT, extracellular relaxed circular HBV DNA, individual experiments behind the average, read-out: IC50, single experiments, EC RC): 0.047 µM
IC50 ([1]; WT, intracellular single-stranded HBV DNA, individual experiments behind the average, read-out: IC50, single experiments, IC SS): 0.22 µM
change in sensitivity of L526M compared to wild-type (L526M HBV baculovirus; FIG. 7A-7C, result in words): No significant change
inhibition at 1 µM (L526M HBV baculovirus; Hepatitis B virus, HepG2, 526 (L526M) HBV, ds HBV DNA band density vs untreated controls, estimated from fitted curve, negative = stimulation, read-out: Inhibition at 1 μM): 86.2%
IC50 (L526M HBV baculovirus; Hepatitis B virus, 526 (L526M) HBV, ds HBV DNA bands, HepG2 cells, read-out: IC50): 90 nM
Resistance Factor (L526M HBV baculovirus; {}): 1
inhibition at 1 µM ([2]; Hepatitis B virus, HepG2, wt HBV, ds HBV DNA band density vs untreated controls, estimated from fitted curve, negative = stimulation of replication): 91.6%
IC50 ([2]; Hepatitis B virus, wt HBV, ds HBV DNA bands, HepG2 cells): 80 nM
Resistance Factor ([2]; {}): 1
IC50 [3, 9]: 0.09 µM
IC50 [3, 10]: 0.28 µM
change in sensitivity of L526M/M550V ([4]; FIG. 8A-8C, result in words): no substantial change
inhibition at 1 µM ([4]; Hepatitis B virus, HepG2, dual (L526M/M550V) HBV, ds HBV DNA band density vs untreated controls, estimated from fitted curve, negative = stimulation): 77%
IC50 ([4]; Hepatitis B virus, dual (L526M/M550V) HBV, ds HBV DNA bands, HepG2 cells): 160 nM
Resistance Factor ([4]; {}): 2
IC50 [5]: 0.94 µM
IC50 ([6]; Hepatitis B virus, HepG2, Precore (G1896A), extracellular relaxed circular HBV DNA, averages where footnoted, read-out: IC50 (μM), EC RC): 0.025 µM
IC50 ([6]; Hepatitis B virus, HepG2, Precore (G1896A), extracellular relaxed circular HBV DNA, individual experiments behind the average, read-out: IC50, single experiments, EC RC): 0.02 µM
IC50 ([6]; Hepatitis B virus, HepG2, Precore (G1896A), intracellular single-stranded HBV DNA, averages where footnoted, read-out: IC50 (μM), IC SS): 0.195 µM
IC50 ([6]; Hepatitis B virus, HepG2, Precore (G1896A), intracellular single-stranded HBV DNA, individual experiments behind the average, read-out: IC50, single experiments, IC SS): 0.2 µM
IC50 ([6]; Precore (G1896A), extracellular relaxed circular HBV DNA, individual experiments behind the average, read-out: IC50, single experiments, EC RC): 0.03 µM
IC50 ([6]; Precore (G1896A), intracellular single-stranded HBV DNA, individual experiments behind the average, read-out: IC50, single experiments, IC SS): 0.19 µM
sensitivity of G1896A HBV compared with wild type HBV ([6]; result in words): at least as sensitive
IC50 [7, 9]: 1 µM
IC50 [7, 10]: 0.47 µM
IC50 [8]: 0.93 µM
inhibition at 1 µM (M550I HBV baculovirus; Hepatitis B virus, HepG2, 550 (M550I) HBV, ds HBV DNA band density vs untreated controls, estimated from fitted curve, negative = stimulation): 70%
IC50 (M550I HBV baculovirus; Hepatitis B virus, 550 (M550I) HBV, ds HBV DNA bands, HepG2 cells, read-out: IC50): 310 nM
Resistance Factor (M550I HBV baculovirus; {}): 4
